Experimental data as given in patent US6586596B2, “Acetylcholine enhancers” (priority 1998, dated 2003).
Like-named read-outs stand apart in the source and are kept apart here.

Assays:
[1] = test system: scopolamine-induced spatial learning deficit; assay: Water maze, scopolamine-induced deficit in spatial learning; format: in vivo, rats; conditions: p.o. 60 minutes before each trial; Cm.A 1.0 mg/kg/day; scopolamine 0.5 mg/kg i.p.
Procedure: A total of 6 trials (2 trials on 1st day, and 1 trial after 2nd day) were conducted to observe the effects of the test compounds. Scopolamine (0.5 mg/kg, i.p.) and the test compounds (p.o.) were administered 30 and 60 minutes before each trial, respectively.

[2] = target: T1, 5HT3 receptor (Rattus norvegicus, UniProt P35563); assay: Ex vivo binding of 5HT3 receptors, (3H)-zacopride autoradiography of brain sections; format: in vivo, Sprague-Dawley rats; conditions: 10 mg/kg i.p., 30 minutes, amygdala, 0.5 nM (3H)-zacopride
T1 construct: from tissue; host or cells: rat brain sections (amygdala)
T1 sequence (P35563 24-483): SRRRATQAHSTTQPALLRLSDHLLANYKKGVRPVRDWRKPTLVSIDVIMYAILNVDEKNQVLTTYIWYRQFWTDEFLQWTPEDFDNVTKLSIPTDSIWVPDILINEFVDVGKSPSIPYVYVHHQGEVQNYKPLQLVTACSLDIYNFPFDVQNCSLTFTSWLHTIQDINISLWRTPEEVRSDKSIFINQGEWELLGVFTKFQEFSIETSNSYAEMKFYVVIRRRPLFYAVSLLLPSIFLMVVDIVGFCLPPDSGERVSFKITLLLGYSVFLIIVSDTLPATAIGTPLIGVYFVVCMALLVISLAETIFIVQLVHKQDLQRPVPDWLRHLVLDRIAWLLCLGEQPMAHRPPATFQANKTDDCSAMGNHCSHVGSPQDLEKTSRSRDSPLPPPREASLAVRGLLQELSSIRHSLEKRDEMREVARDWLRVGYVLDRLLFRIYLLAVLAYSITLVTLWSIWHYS
Procedure: Animals (Sprague-Dawley rats) were injected intraperitoneally with 10 mg/kg Cm. A (in 90% ethanol, 10% water, vehicle) (n=3) or vehicle (n=3). After thirty minutes animals were sacrificed and brains were rapidly dissected and frozen in isopentane maintained at −42° C. Sections (horizontal and coronal) were prepared on a cryostat and maintained at −20° C.
Brain sections were removed from storage and thawed at room temperature for 30 minutes. Total 5HT3 receptor binding was measured in sections incubated with 0.5 nM (^3H)-zacopride (Amerhsam; zacorpide is a 5-HT3 selective ligand) in 50 mM HEPES/TRIS buffer. Nonspecific binding was determined in adjacent sections incubated in the presence of radioligand and 500 nM 5-HT. After a 10 minute incubation at room temperature, sections were washed in icecold buffer (2×1 minute) followed by a 10 second rinse in ice-cold distilled water. Sections were then dried in a stream of cold air overnight. After drying, sections were exposed to x-ray film (Kodak Hyperfilm) and exposed for 4 months.
Autoradiograms were quantified using an automated image analysis system, DAGE camera IMAGE software. Mean optical density measurements were obtained from four individual measurements per group, control (vehicle injected) and Cm. A; background measurements were obtained from an area of x-ray on which no tissue was exposed. […]

[3] = test system: healthy volunteers; assay: Human Phase IA single-dose, dose-escalation clinical trial; format: in vivo; conditions: single oral dose 2 mg to 180 mg
Procedure: A Phase IA clinical trial was conducted as a single-dose, double-blind, placebo-controlled, dose-escalation study. This study investigated the safety and pharmacokinetic profile of the particularly preferred salt (depicted in FIG. 1B; N-[2-( 1-benzylpiperizin-4-yl)ethyl]-2,3-dihydro-9-methoxy-1H-pyrrolo[3,4-b]quinolin-1-one hemifumarate) of the compound of FIG. 1A, N-[2-(1-benzylpiperzin-4-yl)ethyl]-2,3-dihydro-9-methoxy-1H-pyrrolo[3,4-b] quinolin-1-one. The compound was administered orally in doses from 2 mg to 180 mg to healthy volunteers (male and female), aged 50-75 years, under fasting conditions. A total of 68 individuals were enrolled in the study and completed the trial. A maximum tolerated dose was not identified in this study, i. e., even at 180 mg, there were insufficient adverse events to establish a true “maximum tolerated dose” in this study.

[4] = target: T2, AChE (Rattus norvegicus, UniProt P37136); format: in vivo; conditions: 1 hour after dosing
T2 construct: from tissue; host or cells: rat brain (hippocampus, striatum, frontal cortex, parietal cortex)
T2 sequence (P37136 32-614): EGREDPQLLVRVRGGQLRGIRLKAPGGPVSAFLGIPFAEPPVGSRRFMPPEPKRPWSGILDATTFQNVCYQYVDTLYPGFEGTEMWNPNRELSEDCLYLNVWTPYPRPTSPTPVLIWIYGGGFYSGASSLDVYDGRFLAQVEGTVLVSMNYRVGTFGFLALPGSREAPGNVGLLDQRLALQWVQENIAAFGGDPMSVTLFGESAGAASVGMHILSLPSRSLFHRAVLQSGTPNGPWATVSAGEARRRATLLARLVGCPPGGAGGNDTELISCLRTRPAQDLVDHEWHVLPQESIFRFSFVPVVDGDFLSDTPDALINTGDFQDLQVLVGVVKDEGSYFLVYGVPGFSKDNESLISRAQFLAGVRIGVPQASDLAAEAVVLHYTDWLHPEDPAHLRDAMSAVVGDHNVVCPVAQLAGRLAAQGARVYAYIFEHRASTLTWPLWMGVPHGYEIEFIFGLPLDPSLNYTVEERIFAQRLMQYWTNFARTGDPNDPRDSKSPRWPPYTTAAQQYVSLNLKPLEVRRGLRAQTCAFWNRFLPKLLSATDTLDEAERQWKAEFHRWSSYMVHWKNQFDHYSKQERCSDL
Procedure: After 1 hour, rats were sacrificed and brains were isolated and divided into several portions. AChE activity in preparations from hippocampus, striatum, frontal cortex and parietal cortex was determined by Ellman's method.

[5] = test system: extracellular levels of ACh in striatum; assay: ACh release in striatum, microdialysis in freely moving rats; format: in vivo; conditions: for ACh content in perfusate increased up to: striatum, young rats (2 month-old Wistar)
Procedure: ACh content in perfusate obtained from striatum (Bregma, A: 0.2 mm, L: 3.0 mm, H: 4.0 mm) of brain were continuously detected by means of HPLC and ECD through the microdialysis system using freely moving rats. See Messamore, E., et al, 32 Neuropharmacol. […] After an equilibration period of more than 2 hours, five fractions were allowed to obtain basal ACh content. Compounds were injected i.p., and thereafter, a microdialytic analysis was conducted for 3 hours.

COc1c2c(nc3ccccc13)CN(CCC1CCN(Cc3ccccc3)CC1)C2=O [Cm.A, 2-[2-(1-benzylpiperizin-4-yl)ethyl]-2,3-dihydro-9-methoxy-1H-pyrrolo[3,4-b]quinolin-1-one hemifumarate]
deficit in spatial learning (escape latency) [1]: improved the deficit in spatial learning induced by scopolamine
occupancy of 5HT3 receptor sites within the brain [2]: occupies 5HT3 receptor sites within the brain
safety parameters (vital signs, ECG, blood chemistry, hematology, urinalysis, physical examination) [3]: no clinically significant changes
serious adverse events [3]: no serious adverse events reported
maximum tolerated dose ([3]; fasting, aged 50-75 years): > 180 mg
mild adverse events ([3]; 68 individuals enrolled): seven mild adverse events
AChE activity Frontal cortex ([4]; 1 mg/kg p.o.): 48.1 nmol/min/mg protein
AChE activity Hippocampus ([4]; 1 mg/kg p.o.): 37.6 ± 0.8 nmol/min/mg protein
AChE activity Parietal cortex ([4]; 1 mg/kg p.o.): 27.3 ± 0.5 nmol/min/mg protein
AChE activity Striatim ([4]; 1 mg/kg p.o.): 238.9 nmol/min/mg protein
AChE activity Frontal cortex ([4]; 3 mg/kg p.o.): 56 nmol/min/mg protein
AChE activity Hippocampus ([4]; 3 mg/kg p.o.): 42.1 ± 1.3 nmol/min/mg protein
AChE activity Parietal cortex ([4]; 3 mg/kg p.o.): 31.3 ± 1.6 nmol/min/mg protein
AChE activity Striatim ([4]; 3 mg/kg p.o.): 219.9 nmol/min/mg protein
AChE activity Frontal cortex ([4]; 10 mg/kg p.o.): 58.4 nmol/min/mg protein
AChE activity Hippocampus ([4]; 10 mg/kg p.o.): 48.3 ± 2.9 nmol/min/mg protein
AChE activity Parietal cortex ([4]; 10 mg/kg p.o.): 32.6 ± 1.7 nmol/min/mg protein
AChE activity Striatim ([4]; 10 mg/kg p.o.): 274.0 nmol/min/mg protein
inhibition of AChE activity (text on Table 3) ([4]; p.o.): inhibition of AChE in a nondose dependent manner
centrally acting cholinergic symptoms (tremor, chewing and yawning) ([5]; striatum study, young rats, i.p., data not shown): few centrally acting cholinergic symptoms
ACh content in perfusate increased up to ([5]; 10 mg/kg i.p.): 131%
ACh content in perfusate increased up to ([5]; 30 mg/kg i.p.): 369%
